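Each compound was tested at five concentrations against cells in 96-well plates for 48 hours. The concentration for 50% growth inhibition is given as GI50.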 Active and inactive are the calls of the source. Rule as the data show it: active = GI50 up to about 1.1 µM and inactive = higher. Bounds are passed on as bounds.

The values that follow come from ChEMBL document CHEMBL1201862, “PubChem BioAssay data set” (2004).

Test systems include CCRF-CEM; HCT-15; HOP-62; HOP-92; IGROV-1; K562; MOLT-4; NCI-H23; NCI-H460; RXF 393; SF-539; SK-MEL-28; SK-MEL-2; SK-MEL-5; SK-OV-3; SNB-75; U-251; UACC-62; UO-31; OVCAR-8.
What all share (assay): DTP human tumour cell line panel, 48 h

With `COc1nc2ccc(COc3ccc(C(=O)NC(CCC(=O)O)C(=O)O)cc3)cc2nc1OC` (centres undefined), the GI50 in the experiment on CCRF-CEM was > 10 µM (inactive); with HCT-15, over 10 µM; with HOP-62, > 10 µM (inactive); with HOP-92, > 10 µM (inactive); with IGROV-1 it was > 10 µM (inactive); in the experiment with K562 it was > 10 µM (inactive). The GI50 in the experiment on MOLT-4, in the experiment on NCI-H23, in the experiment with NCI-H460, in the experiment with RXF 393, in the experiment with SF-539 and with SK-MEL-28 was > 10 µM (inactive) throughout. The GI50 in the experiment on SK-MEL-2, in the experiment with SK-MEL-5, in the experiment with SK-OV-3, in the experiment on SNB-75, in the experiment with U-251 and in the experiment on UACC-62 was > 10 µM (inactive) throughout. For the same molecule, the GI50 in the experiment on UO-31 is > 10 µM (inactive).

For `COc1ccc(C[C@H](N)C(=O)N2C[C@@H](CO)C[C@@H](n3ccc(=O)[nH]c3=O)C2)cc1`, the GI50 in the experiment with CCRF-CEM is > 100 µM (inactive); in the experiment with HCT-15, over 100 µM; in the experiment on HOP-62, > 100 µM (inactive); in the experiment with HOP-92, > 100 µM (inactive); with IGROV-1, > 100 µM (inactive); in the experiment on K562 it was > 100 µM (inactive). Further, the GI50 in the experiment on MOLT-4, with NCI-H23, in the experiment on NCI-H460, in the experiment on OVCAR-8, with RXF 393 and with SF-539 was > 100 µM (inactive) in each case. The GI50 in the experiment on SK-MEL-28, with SK-MEL-2, with SK-MEL-5, in the experiment with SK-OV-3, in the experiment on U-251 and in the experiment with UACC-62 was > 100 µM (inactive) in each case. Also, the GI50 with UO-31 was > 100 µM (inactive).

`CC(=O)OCC1=C(C(=O)O)C(c2ccc3c(c2)OCO3)c2cc3c(cc2O1)OCO3` (centres undefined): the GI50 in the experiment on CCRF-CEM is > 100 µM (inactive); in the experiment on HCT-15, over 100 µM; with HOP-62, > 100 µM (inactive); in the experiment on HOP-92 it was 70.1 µM (inactive); with IGROV-1 it was > 100 µM (inactive); in the experiment with K562, > 100 µM (inactive). Also, the GI50 in the experiment with MOLT-4, with NCI-H23, with NCI-H460, with OVCAR-8, in the experiment with RXF 393 and in the experiment with SF-539 was > 100 µM (inactive) each time. Also, the GI50 in the experiment with SK-MEL-28 was > 100 µM (inactive); in the experiment with SK-MEL-5 it was > 100 µM (inactive); in the experiment on SK-OV-3, > 100 µM (inactive); with SNB-75 it was 53.8 µM (inactive); with U-251 it was > 100 µM (inactive); in the experiment on UACC-62 it was > 100 µM (inactive). Also, the GI50 in the experiment on UO-31 was > 100 µM (inactive).

For the molecule `CO/C(=N\N=C(/C)C(F)(F)F)c1ccncc1`, the GI50 in the experiment with CCRF-CEM was > 100 µM (inactive); in the experiment on HCT-15, over 100 µM; in the experiment with HOP-62, > 100 µM (inactive); with HOP-92, > 100 µM (inactive); with IGROV-1, > 100 µM (inactive); in the experiment on K562, > 100 µM (inactive). Besides, the GI50 is 44.5 µM (inactive) with MOLT-4; > 100 µM (inactive) in the experiment on NCI-H23; > 100 µM (inactive) in the experiment on NCI-H460; > 100 µM (inactive) with OVCAR-8; > 100 µM (inactive) in the experiment on RXF 393; > 100 µM (inactive) in the experiment with SK-MEL-28. Moreover, the GI50 in the experiment with SK-MEL-2, in the experiment on SK-MEL-5, in the experiment on SK-OV-3, in the experiment on SNB-75, in the experiment on U-251 and in the experiment with UACC-62 was > 100 µM (inactive) in each case. Also, the GI50 with UO-31 was > 100 µM (inactive).

`Cc1ccc(C2C(C(=O)C(C)(C)C)N2S(=O)(=O)c2ccc(C)cc2)cc1` (centres undefined): the GI50 in the experiment with CCRF-CEM is 22.6 µM (inactive); in the experiment on HCT-15, 22.3 µM; in the experiment on HOP-62, 33.5 µM (inactive); in the experiment with IGROV-1 it was 17.5 µM (inactive); in the experiment on K562, 25.3 µM (inactive); in the experiment with NCI-H23, 23.7 µM (inactive). Also, the GI50 is 21.3 µM (inactive) in the experiment with OVCAR-8; 21 µM (inactive) in the experiment on RXF 393; 14.9 µM (inactive) in the experiment on SF-539; 28.1 µM (inactive) with SK-MEL-28; 46.6 µM (inactive) in the experiment with SK-MEL-2; > 100 µM (inactive) in the experiment on SK-OV-3. The GI50 with SNB-75 was 19.5 µM (inactive); in the experiment with U-251 it was 20.2 µM (inactive); with UACC-62 it was 15.8 µM (inactive); with UO-31, 18.4 µM (inactive).

For the molecule `COc1ccc(C2OC[C@H]3O[C@@H](OCc4ccccc4)[C@H](O)[C@@H](O)[C@@H]3O2)cc1` (some centres undefined), the GI50 in the experiment on CCRF-CEM was 52.7 µM (inactive); with HCT-15 it was over 100 µM; in the experiment with HOP-62, > 100 µM (inactive); with HOP-92 it was 35.8 µM (inactive); in the experiment with IGROV-1, 55 µM (inactive); in the experiment on K562, > 100 µM (inactive). Also, the GI50 with MOLT-4 is 41.9 µM (inactive); in the experiment on NCI-H23, > 100 µM (inactive); in the experiment with NCI-H460, > 100 µM (inactive); in the experiment on OVCAR-8 it was > 100 µM (inactive); in the experiment with RXF 393 it was > 100 µM (inactive); with SF-539, > 100 µM (inactive). Besides, the GI50 was > 100 µM (inactive) in the experiment with SK-MEL-28; > 100 µM (inactive) in the experiment on SK-MEL-2; 58.2 µM (inactive) in the experiment on SK-MEL-5; > 100 µM (inactive) with SK-OV-3; 2.29 µM (inactive) in the experiment with SNB-75; > 100 µM (inactive) in the experiment with U-251. The GI50 in the experiment with UACC-62 and in the experiment with UO-31 was > 100 µM (inactive) throughout.

Regarding `CCCNC1=C(C)C(=O)C2=C(C1=O)[C@H](COC(N)=O)[C@]1(OC)[C@@H]3N[C@@H]3CN21`, the GI50 in the experiment on CCRF-CEM is 3.16 µM (inactive); in the experiment with HCT-15 it was 4.01 µM; in the experiment with HOP-62, 0.303 µM (active); with HOP-92 it was 8.57 µM (inactive); with IGROV-1 it was 5.04 µM (inactive); in the experiment with K562, 12.1 µM (inactive). Also, the GI50 in the experiment on MOLT-4 was 1.05 µM (active); in the experiment on NCI-H23, 0.861 µM (active); in the experiment on NCI-H460 it was 0.0661 µM (active); in the experiment on OVCAR-8, 10 µM (inactive); in the experiment on RXF 393, 12 µM (inactive); in the experiment on SF-539, 4.39 µM (inactive). The GI50 is 19.8 µM (inactive) with SK-MEL-28; 9.51 µM (inactive) in the experiment on SK-MEL-2; 0.65 µM (active) with SK-MEL-5; 16.6 µM (inactive) with SK-OV-3; 1.67 µM (inactive) with SNB-75; 2.48 µM (inactive) in the experiment with U-251. Further, the 50% growth inhibitory concentration (GI50) with UACC-62 is 0.472 µM (active); with UO-31, 20.3 µM (inactive).

With `CCOP(=O)(C/C=C/Cn1ncc(=O)[nH]c1=O)OCC`, the GI50 with CCRF-CEM is > 100 µM (inactive); in the experiment on HCT-15, over 100 µM; in the experiment on HOP-62, > 100 µM (inactive); in the experiment with HOP-92 it was > 100 µM (inactive); with IGROV-1, > 100 µM (inactive); in the experiment with K562, > 100 µM (inactive). For the same molecule, the GI50 with MOLT-4, with NCI-H460, in the experiment on OVCAR-8, with RXF 393, in the experiment on SF-539 and with SK-MEL-28 was > 100 µM (inactive) in each case. In addition, the GI50 in the experiment with SK-MEL-2, with SK-MEL-5, in the experiment on SNB-75, in the experiment on U-251 and with UO-31 was > 100 µM (inactive) throughout.
